Experimental data reported in PubChem BioAssay AID330 (DTP/NCI, 2004).
Where “and” joins values, the source holds several entries; their conditions need not be identical. Identical values can stand only once. Toxic doses and inconclusive results are not listed. Rule for the calls: active = survival T/C of 150% or more; inactive = T/C below 125% in these data.

System: P388 leukemia ip, CD2F1 mice, survival T/C
Assay: NCI In Vivo Anticancer Drug Screen. Data for tumor model P388 Leukemia (intraperitoneal) in CD2F1 (CDF1) mice
Details: endpoint: median survival time, higher = longer survival
Procedure, shortened: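 Mice carrying the transplanted tumor received test compound or vehicle. Survival was recorded in each group, and the value is the treated-group measurement divided by that of the vehicle-treated control group.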

[1] = dose: 25.0 mg/kg/injection, schedule: Q01DX009 (ip), vehicle: saline
[2] = dose: 50.0 mg/kg/injection, schedule: Q01DX009 (ip), vehicle: saline
[3] = dose: 100.0 mg/kg/injection, schedule: Q01DX009 (ip), vehicle: saline
[4] = dose: 200.0 mg/kg/injection, schedule: Q01DX009 (ip), vehicle: saline
[5] = dose: 50.0 mg/kg/injection, schedule: Q01DX005 (ip), vehicle: Klucel (hydroxypropylcellulose) (HPC)
[6] = dose: 100.0 mg/kg/injection, schedule: Q01DX005 (ip), vehicle: Klucel (hydroxypropylcellulose) (HPC)
[7] = dose: 200.0 mg/kg/injection, schedule: Q01DX005 (ip), vehicle: Klucel (hydroxypropylcellulose) (HPC)
[8] = dose: 12.5 mg/kg/injection, schedule: Q01DX005 (ip), vehicle: saline with Tween-80
[9] = dose: 25.0 mg/kg/injection, schedule: Q01DX005 (ip), vehicle: saline with Tween-80
[10] = dose: 50.0 mg/kg/injection, schedule: Q01DX005 (ip), vehicle: saline with Tween-80
[11] = dose: 100.0 mg/kg/injection, schedule: Q01DX005 (ip), vehicle: saline with Tween-80
[12] = dose: 50.0 mg/kg/injection, schedule: Q01DX009 (ip), vehicle: saline with Tween-80
[13] = dose: 100.0 mg/kg/injection, schedule: Q01DX009 (ip), vehicle: saline with Tween-80
[14] = dose: 200.0 mg/kg/injection, schedule: Q01DX009 (ip), vehicle: saline with Tween-80
[15] = dose: 200.0 mg/kg/injection, schedule: Q01DX005 (ip), vehicle: saline with Tween-80
[16] = dose: 100.0 mg/kg/injection, schedule: Q04DX002 (ip), vehicle: saline with Tween-80
[17] = dose: 200.0 mg/kg/injection, schedule: Q04DX002 (ip), vehicle: saline with Tween-80
[18] = dose: 120.0 mg/kg/injection, schedule: Q01DX005 (ip), vehicle: saline with Tween-80
[19] = dose: 240.0 mg/kg/injection, schedule: Q01DX005 (ip), vehicle: saline with Tween-80
[20] = dose: 60.0 mg/kg/injection, schedule: Q01DX005 (ip), vehicle: saline with Tween-80

Measured: T/C

CCNC(=S)N/N=C/c1nccc(-c2ccccc2)c1C
inactive: [1] 117 % of control and 94 % of control | [2] 100 % of control and 103 % of control (2×) | [3] 99 % of control and 108 % of control | [4] 100 % of control

Cc1ccsc1C(=O)c1ccccc1
inactive: [5] 99 % of control | [6] 94 % of control | [7] 96 % of control

CCN(CC)CCC(=O)c1ccc(Cl)c2ccccc12
inactive: dose: 6.25 mg/kg/injection, schedule: Q01DX005 (ip), vehicle: saline with Tween-80 101 % of control | [8] 93 % of control | [9] 99 % of control and 104 % of control | [10] 109 % of control | [11] 93 % of control

Cc1ccc2nc(C[n+]3cccc4ccccc43)ccc2c1
inactive: dose: 0.38 mg/kg/injection, schedule: Q01DX005 (ip), vehicle: saline 107 % of control | dose: 0.75 mg/kg/injection, schedule: Q01DX005 (ip), vehicle: saline with Tween-80 113 % of control | dose: 0.75 mg/kg/injection, schedule: Q01DX005 (ip), vehicle: saline 115 % of control and 122 % of control | dose: 1.5 mg/kg/injection, schedule: Q01DX005 (ip), vehicle: saline with Tween-80 115 % of control | dose: 1.5 mg/kg/injection, schedule: Q01DX005 (ip), vehicle: saline 116 % of control | dose: 3.0 mg/kg/injection, schedule: Q01DX005 (ip), vehicle: saline with Tween-80 100 % of control | dose: 3.0 mg/kg/injection, schedule: Q01DX005 (ip), vehicle: saline 114 % of control and 116 % of control | dose: 3.12 mg/kg/injection, schedule: Q01DX005 (ip), vehicle: saline with Tween-80 117 % of control

CNC(=O)c1ccccc1NC(=O)c1ccccc1[N+](=O)[O-]
inactive: dose: 100.0 mg/kg/injection, schedule: Q04DX002 (ip), vehicle: Klucel (hydroxypropylcellulose) (HPC) 102 % of control | dose: 200.0 mg/kg/injection, schedule: Q04DX002 (ip), vehicle: Klucel (hydroxypropylcellulose) (HPC) 107 % of control | dose: 400.0 mg/kg/injection, schedule: Q04DX002 (ip), vehicle: Klucel (hydroxypropylcellulose) (HPC) 103 % of control

CCOC(=O)CCC(NC(=O)OCCNCCCl)C(=O)OCC (stereo unspecified)
inactive: [3] 86 % of control | [4] 86 % of control | dose: 400.0 mg/kg/injection, schedule: Q01DX009 (ip), vehicle: saline 95 % of control

ClCC1CSC2(CCCCC2)O1 (stereo unspecified)
inactive: [12] 104 % of control and 115 % of control | [13] 100 % of control and 119 % of control | [14] 97 % of control

CC(O)C(NC(=O)c1ccccc1)C(=O)O (stereo unspecified)
inactive: [12] 99 % of control | [13] 95 % of control | [14] 91 % of control

COc1ccc(Cc2ccccc2CO)c2ccccc12
inactive: dose: 100.0 mg/kg/injection, schedule: Q01DX001 (ip), vehicle: Klucel (hydroxypropylcellulose) (HPC) 100 % of control | dose: 200.0 mg/kg/injection, schedule: Q01DX001 (ip), vehicle: Klucel (hydroxypropylcellulose) (HPC) 100 % of control | dose: 400.0 mg/kg/injection, schedule: Q01DX001 (ip), vehicle: Klucel (hydroxypropylcellulose) (HPC) 100 % of control

Clc1c(Br)c(-c2ccccc2)nc2ccccc12
inactive: [10] 108 % of control | [11] 110 % of control | [15] 108 % of control

C/C(=N\NC(=S)Nc1ccc([N+](=O)[O-])cc1S(=O)(=O)O)c1ccccn1
inactive: [10] 103 % of control | [11] 106 % of control | [15] 103 % of control

C(=N\n1cnnc1)/c1ccccc1/C=N/n1cnnc1
inactive: [13] 100 % of control | [14] 90 % of control | dose: 400.0 mg/kg/injection, schedule: Q01DX009 (ip), vehicle: saline with Tween-80 100 % of control

Nc1ccccc1-c1ccccc1N
inactive: dose: 60.0 mg/kg/injection, schedule: Q01DX005 (ip), vehicle: suspension in saline 99 % of control | dose: 120.0 mg/kg/injection, schedule: Q01DX005 (ip), vehicle: suspension in saline 103 % of control | dose: 240.0 mg/kg/injection, schedule: Q01DX005 (ip), vehicle: suspension in saline 90 % of control

O=S1(=O)CCC2=CC(C(F)(F)F)=CC(C(F)(F)F)=CN21
inactive: [8] 109 % of control | [9] 122 % of control | [10] 107 % of control

COc1cc2ccc1NC(=O)N1CCN(CC1)C(=O)Nc1ccc(cc1OC)-c1ccc(c(OC)c1)NC(=O)N1CCN(CC1)C(=O)Nc1ccc-2cc1OC
inactive: [5] 101 % of control | [6] 98 % of control | [7] 102 % of control

[Co].[NH-]CC[NH-].[NH-]CC[NH-].[NH-]CC[NH-]
inactive: [1] 100 % of control | [2] 111 % of control | dose: 50.0 mg/kg/injection, schedule: Q04DX002 (ip), vehicle: saline with Tween-80 100 % of control | [3] 105 % of control | [16] 102 % of control | [17] 106 % of control

CS/C(N)=N\NCCC(=O)Nc1c(C)cccc1C
inactive: [16] 100 % of control | [17] 91 % of control | dose: 400.0 mg/kg/injection, schedule: Q04DX002 (ip), vehicle: saline with Tween-80 91 % of control

COc1cc2cc3cc(-c4ccc(Cl)cc4)c(N4CCOCC4)nc3nc2cc1OC
inactive: dose: 15.0 mg/kg/injection, schedule: Q01DX005 (ip), vehicle: saline with Tween-80 92 % of control | dose: 30.0 mg/kg/injection, schedule: Q01DX005 (ip), vehicle: saline with Tween-80 93 % of control | [18] 91 % of control | [19] 93 % of control

CCSSC12CCCN1C(=O)C(C)N(C)C2=O (stereo unspecified)
inactive: [2] 105 % of control | [3] 104 % of control | [4] 111 % of control

N#CC(C#N)=CN
inactive: [12] 94 % of control | [13] 103 % of control | [14] 103 % of control

COc1ccccc1N1CCN(CCCNc2cc(=O)n(C)c(=O)n2C)CC1
inactive: dose: 50.0 mg/kg/injection, schedule: Q01DX009 (ip), vehicle: Klucel (hydroxypropylcellulose) (HPC) 98 % of control | dose: 100.0 mg/kg/injection, schedule: Q01DX009 (ip), vehicle: Klucel (hydroxypropylcellulose) (HPC) 104 % of control | dose: 200.0 mg/kg/injection, schedule: Q01DX009 (ip), vehicle: Klucel (hydroxypropylcellulose) (HPC) 108 % of control

O=S(=O)(Nc1cccc(C(F)(F)F)c1)c1ccc(F)cc1
inactive: [20] 94 % of control | [18] 100 % of control | [19] 93 % of control

C=C(C)C(=O)OC1CCC2Cc3occ(C)c3C(OC(=O)C=C(C)C)C2(C)C1C (stereo unspecified)
inactive: dose: 10.0 mg/kg/injection, schedule: Q01DX009 (ip), vehicle: saline with Tween-80 103 % of control | dose: 20.0 mg/kg/injection, schedule: Q01DX009 (ip), vehicle: saline with Tween-80 101 % of control | dose: 40.0 mg/kg/injection, schedule: Q01DX009 (ip), vehicle: saline with Tween-80 100 % of control | dose: 80.0 mg/kg/injection, schedule: Q01DX009 (ip), vehicle: saline with Tween-80 98 % of control

Cc1ccccc1-n1c(C)nc2[nH]ncc2c1=O
inactive: [5] 105 % of control | [6] 98 % of control | [7] 96 % of control

N#Cc1nc(CC(=O)c2ccccc2Cl)c(CC(=O)c2ccccc2Cl)nc1C#N
inactive: [20] 100 % of control | [18] 94 % of control | [19] 114 % of control

Nc1cc2ncccc2c2ccccc12
inactive: [2] 100 % of control and 98 % of control | [3] 109 % of control | [4] 106 % of control and 89 % of control
